Results: patent US10011629B2, “Nucleoside analogs for treatment of the flaviviridae family of viruses and cancer” (Cocrystal Pharma, Inc., priority 2015, dated 2018)

Legend:
[1] = Cellular toxicity assay in PBM cells; format: cell-based; conditions: human; for CC50: read-out: Cytotoxicity, CC50; for cytotoxicity: value in parentheses after CC50, read-out: Cytotoxicity (% inhibition)
Method: (§1) The toxicity of the compounds was assessed in Vero, human PBM, CEM (human lymphoblastoid), MT-2, and HepG2 cells, as described previously (see Schinazi R. F., Sommadossi J.-P., Saalmann V., Cannon D. L., Xie M.-Y., Hart G. C., Smith G. A. & Hahn E. F. Antimicrob. Agents Chemother. 1990, 34, 1061-67).
(§2) Cycloheximide was included as positive cytotoxic control, and untreated cells exposed to solvent were included as negative controls. The cytotoxicity IC50 was obtained from the concentration-response curve using the median effective method described previously (see Chou T.-C. & Talalay P. Adv. Enzyme Regul. 1984, 22, 27-55; Belen′kii M. S. & Schinazi R. F. Antiviral Res. 1994, 25, 1-11).

[2] = Cellular toxicity assay in CEM cells; format: cell-based; conditions: human; for CC50: read-out: Cytotoxicity, CC50; for cytotoxicity: value in parentheses after CC50, read-out: Cytotoxicity (% inhibition)
Method: as §1, §2

[3] = Cellular toxicity assay in Vero cells; format: cell-based; conditions: African green monkey; for CC50: read-out: Cytotoxicity, CC50; for cytotoxicity: value in parentheses after CC50, read-out: Cytotoxicity (% inhibition)
Method: as §1, §2

[4] = tested on: HepaRG cells; test: HepaRG 14-day cell viability assay (CellTiter-Glo); format: cell-based; conditions: 14 days with 4 repeat doses
Method: IC50 in HepaRG Cells for a 14-Day Assay (Non-Proliferating Liver Cells) Using Cell Titer GLO
HepaRG cells are plated one week prior to dosing to allow for the cells to regain its maximal metabolic activity and structure. HepaRG cells are dosed with increasing concentrations of the test compound (final DMSO concentration=0.5%); final test compound concentrations of 100, 30, 10, 3, 1, 0.3, 0.1, 0.03 μM for an eight point dose response curve (n=3 replicates per concentration) and the microtissues are incubated for 14 days with 4 repeat doses. Appropriate controls are simultaneously used as quality controls. Following the dosing period the medium is removed the cell viability is determined using CellTiter-Glo® reagent. The test sample is subsequently transferred to designated wells of a white assay plate and the luminescence determined using a luminometer.
IC50 values are also determined provided a clear dose-response relationship is observed.

[5] = tested on: mitochondrial DNA (COXII gene) in HepG2 cells; test: Mitochondrial DNA level in HepG2 cells (real-time PCR); conditions: for % inhibition MitDNA / IC50: HepG2 cells, 14-day assay; for % inhibition MitDNA: 10 μM; for IC50: read-out: IC50 MitDNA
Method: This assay was used in all studies described in this application that determine the effect of compounds on mitochondrial DNA content. In this assay, low-passage-number HepG2 cells were seeded at 5,000 cells/well in collagen-coated 96-well plates. Test compounds were added to the medium to obtain final concentrations of 0 μM, 0.1 μM, 10 μM and 100 μM. […] The mitochondrial cytochrome c oxidase subunit II (COXII) gene and the ß-actin or rRNA gene were amplified from 5 μl of the eluted nucleic acids using a multiplex Q-PCR protocol with suitable primers and probes for both target and reference amplifications. […] For exon 3 of the ß-actin gene (GenBank accession number E01094) the sense, probe, and antisense primers are 5′-[…]-3′ (SEQ ID NO. 4), 5′-6-[…]-3′ (SEQ ID NO. 5) and 5′-[…]-3′ (SEQ ID NO. 6), respectively. The primers and probes for the rRNA gene are commercially available from Applied Biosystems. […] The arithmetic formula for this approach is given by 2-ΔΔCT, where ΔΔCT is (CT for average target test sample−CT for target control)−(CT for average reference test−CT for reference control) (see Johnson M R, K Wang, J B Smith, M J Heslin, R B Diasio. Quantitation of dihydropyrimidine dehydrogenase expression by real-time reverse transcription polymerase chain reaction. Anal. Biochem. 2000; 278:175-184). A decrease in mitochondrial DNA content in cells grown in the presence of drug indicated mitochondrial toxicity.

[6] = tested on: nuclear DNA (ß-actin or rRNA gene) in HepG2 cells; test: Nuclear DNA level in HepG2 cells (real-time PCR); format: cell-based, human; conditions: HepG2 cells, 14-day assay; for % inhibition nDNA: 10 μM; for IC50: read-out: IC50 nDNA
Method: This assay was used in all studies described in this application that determine the effect of compounds on mitochondrial DNA content. In this assay, low-passage-number HepG2 cells were seeded at 5,000 cells/well in collagen-coated 96-well plates. Test compounds were added to the medium to obtain final concentrations of 0 μM, 0.1 μM, 10 μM and 100 μM. […] The mitochondrial cytochrome c oxidase subunit II (COXII) gene and the ß-actin or rRNA gene were amplified from 5 μl of the eluted nucleic acids using a multiplex Q-PCR protocol with suitable primers and probes for both target and reference amplifications. […] For exon 3 of the ß-actin gene (GenBank accession number E01094) the sense, probe, and antisense primers are 5′-[…]-3′ (SEQ ID NO. 4), 5′-6-[…]-3′ (SEQ ID NO. 5) and 5′-[…]-3′ (SEQ ID NO. 6), respectively. The primers and probes for the rRNA gene are commercially available from Applied Biosystems. […] The comparative CT method uses arithmetic formulas in which the amount of target (COXII gene) is normalized to the amount of an endogenous reference (the B-actin or rRNA gene) and is relative to a calibrator (a control with no drug at day 7). The arithmetic formula for this approach is given by 2-ΔΔCT, where ΔΔCT is (CT for average target test sample−CT for target control)−(CT for average reference test−CT for reference control) (see Johnson M R, K Wang, J B Smith, M J Heslin, R B Diasio. Quantitation of dihydropyrimidine dehydrogenase expression by real-time reverse transcription polymerase chain reaction. Anal. Biochem. 2000; 278:175-184). A decrease in mitochondrial DNA content in cells grown in the presence of drug indicated mitochondrial toxicity.

[7] = tested on: HepG2 cells; test: Lactic acid production in HepG2 cells; format: cell-based, human; conditions: 14-day assay, 10 μM
Method: To measure the effects of the compounds on lactic acid production, HepG2 cells from a stock culture were diluted and plated in 12-well culture plates at 2.5×10^4 cells per well. […] […] The culture medium was then filtered, and the lactic acid content in the medium was determined using a colorimetric lactic acid assay (Sigma-Aldrich). Since lactic acid product can be considered a marker for impaired mitochondrial function, elevated levels of lactic acid production detected in cells grown in the presence of test compounds would indicate a drug-induced cytotoxic effect.

[8] = tested on: HCV 1b (Huh 7 Clone B cells containing HCV Replicon RNA); test: HCV replicon assay; format: cell-based; conditions: HCV 1b replicon; for EC50 / EC90: Hepatitis C virus, Huh-7, letter value; for EC50: read-out: EC50 (μM or letter value); for EC90: read-out: EC90 (μM or letter value) or % inhib HCV
Method: Huh 7 Clone B cells containing HCV Replicon RNA were seeded in a 96-well plate at 5000 cells/well, and the compounds tested at 10 μM in triplicate immediately after seeding. Following five days incubation (37° C., 5% CO2), total cellular RNA was isolated by using versaGene RNA purification kit from Gentra. Replicon RNA and an internal control (TaqMan rRNA control reagents, Applied Biosystems) were amplified in a single step multiplex Real Time RT-PCR Assay. The antiviral effectiveness of the compounds was calculated by subtracting the threshold RT-PCR cycle of the test compound from the threshold RT-PCR cycle of the no-drug control (ΔCt HCV). A ΔCt of 3.3 equals a 1-log reduction (equal to 90% less starting material) in Replicon RNA levels. The cytotoxicity of the compounds was also calculated by using the ΔCt rRNA values. 2′-C-Me-C was used as the positive control. To determine EC90 and IC50 values^2, ΔCt: values were first converted into fraction of starting material^3 and then were used to calculate the % inhibition. […]

**Q.** For O=c1ccn([C@@H]2O[C@H](CO)[C@@H](O)[C@]2(F)Br)c(=O)[nH]1, which CC50 [1] is on record?
**A.** > 100 µM

**Q.** What about the cytotoxicity [1] of the same molecule?
**A.** -24%

**Q.** And the CC50 ([2]; CEM lymphoblastoid cells)?
**A.** > 100 µM

**Q.** What about the cytotoxicity ([2]; CEM lymphoblastoid cells) of the same molecule?
**A.** 21%

**Q.** And the CC50 [3]?
**A.** > 100 µM

**Q.** What about the cytotoxicity [3] of the same molecule?
**A.** 4.2%

**Q.** For CC(C)OC(=O)[C@H](C)NP(=O)(OC[C@H]1O[C@@H](n2ccc(=O)[nH]c2=O)C(F)(Br)C1O)Oc1ccccc1 (some centres unmarked), which CC50 [1] is on record?
**A.** > 100 µM

**Q.** And the cytotoxicity [1]?
**A.** -3.8%

**Q.** What about the CC50 [2] of the same molecule?
**A.** > 100 µM

**Q.** And the cytotoxicity [2]?
**A.** 14%

**Q.** What about the CC50 [3] of the same molecule?
**A.** > 100 µM

**Q.** What about the cytotoxicity [3] of the same molecule?
**A.** 2.6%

**Q.** With N#CC(C#N)=NNc1cccc(Cl)c1 [Carbonyl cyanide m-chlorophenyl hydrazone, reference compound] as the molecule, how does the IC50 ([4]; Homo sapiens, 336 h) read?
**A.** 5.08 µM

**Q.** For Nc1ccn([C@@H]2CS[C@H](CO)O2)c(=O)n1 [Compound 3TC, reference compound], which “% inhibition MitDNA” value [5] is on record?
**A.** 33.3%

**Q.** What about the IC50 [5] of the same molecule?
**A.** > 10 µM

**Q.** And the “% inhibition nDNA” value [6]?
**A.** 26.8%

**Q.** And the IC50 [6]?
**A.** > 10 µM

**Q.** What about the “Lactic acid Production (% of control)” value [7] of the same molecule?
**A.** 94.9 ± 12.2 % of control

**Q.** With CC(C)OC(=O)[C@H](C)NP(=O)(OC[C@H]1O[C@@H](n2ccc(N)nc2=O)[C@](F)(Br)[C@@H]1O)Oc1ccccc1 (stereo partly drawn) [Compound 21, Isopropyl ((((2R,3R,4R,5R)-5-(4-amino-2-oxopyrimidin-1(2H)-yl)-4-bromo-4-fluoro-3-hydroxytetrahydrofuran-2-yl)methoxy)(phenoxy)phosphoryl)-L-alaninate] as the molecule, how does the “EC50 (μM or letter value): value printed as % @ 10 μM” value ([8]; 10 μM) read?
**A.** 67.9% @ 10 μM

**Q.** With CC(C)OC(=O)[C@H](C)N[P@@](=O)(OC[C@H]1O[C@@H](n2ccc(=O)[nH]c2=O)[C@@](F)(Br)C1O)Oc1ccccc1 (some centres unmarked) [Compound 22] as the molecule, how does the EC50 [8] read?
**A.** 0.1 to 1 µM

**Q.** What about the EC90 [8] of the same molecule?
**A.** 1 to 10 µM

**Q.** And the IC50 ([4]; Homo sapiens, 336 h)?
**A.** 7.18 µM

**Q.** Which EC50 [8] does the source give for CC(C)OC(=O)[C@H](C)N[P@](=O)(OC[C@H]1O[C@@H](n2ccc(=O)[nH]c2=O)[C@@](F)(Br)C1O)Oc1ccccc1 (some centres unmarked) [Compound 23] here?
**A.** 0.1 to 1 µM

**Q.** What about the EC90 [8] of the same molecule?
**A.** 0.1 to 1 µM

**Q.** What about the IC50 ([4]; Homo sapiens, 336 h) of the same molecule?
**A.** 35 µM

**Q.** For Nc1ccn([C@H]2CC[C@@H](CO)O2)c(=O)n1 [ddc, reference compound], which “Summary (mitochondrial toxicity)” value [5] is on record?
**A.** toxic

**Q.** What about the “% inhibition MitDNA” value [5] of the same molecule?
**A.** 99.9%

**Q.** And the IC50 [5]?
**A.** < 10 µM

**Q.** What about the “% inhibition nDNA” value [6] of the same molecule?
**A.** 88.7%

**Q.** And the IC50 [6]?
**A.** < 10 µM

**Q.** And the “Lactic acid Production (% of control)” value [7]?
**A.** 267 ± 25.2 % of control

**Q.** With Tunicamycin [reference compound] as the molecule, how does the IC50 [4] read?
**A.** 0.011 µM
